Assay results taken from US6376497B1, “Antifungal azole derivatives having a fluorinated vinyl group and process for preparing same” (Korea Research Institute of Chemical Technology, priority 1999, dated 2002).
Converted amounts (≈) assume the structure as drawn. Like-named read-outs stand apart in the source and are kept apart here.

Legend:
Assay in all cases: In vitro antifungal activity, microbroth dilution MIC
Format in all cases: cell-based
[1] = system: Cryptococcus neoformans B. 42419; settings: Cryptococcus neoformans, 4 to 48 hours
Method in brief: (§1)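 Broth microdilution adapted from NCCLS M27, in RPMI-1640 with 0.165 M MOPS, pH 7.0. Yeast or mould inoculum at 2×10^3 CFU/ml was mixed 1:1 with DMSO-derived compound solutions (200 to 0.10 μg/ml before mixing) and incubated at 35 °C for 4 to 48 h. MIC was the concentration showing no growth.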

[2] = system: Candida albicans IFO. 1385; settings: Candida albicans, 4 to 48 hours
Method in brief: as §1

[3] = system: Candida krusei K. 11655; settings: Pichia kudriavzevii, 4 to 48 hours
Method in brief: as §1

[4] = system: Trichophyton mentagrophytes A. 9129; settings: Trichophyton mentagrophytes
Method in brief: as §1

[5] = system: Cryptococcus neoformans A. 34144; settings: Cryptococcus neoformans
Method in brief: as §1

[6] = system: Candida pseudotropicalis K. 11658; settings: Kluyveromyces marxianus, 4 to 48 hours
Method in brief: as §1

[7] = system: Candida parapsitosis A. 7330; settings: Candida, 4 to 48 hours
Method in brief: as §1

[8] = system: Aspergillus niger A. 16404; settings: Aspergillus niger
Method in brief: as §1

[9] = system: Candida albicans A. 10231; settings: Candida albicans, 4 to 48 hours
Method in brief: as §1

[10] = system: Candida albicans C1-2; settings: Candida albicans, 4 to 48 hours
Method in brief: as §1

[11] = system: Torulopsis glabrata B. 16205; settings: Nakaseomyces glabratus, 4 to 48 hours
Method in brief: as §1

[12] = system: Aspergillus furnigatus B. 19119; settings: Aspergillus
Method in brief: as §1

[13] = system: Cryptococcus neoformans IFM. 40092; settings: Cryptococcus neoformans
Method in brief: as §1

[14] = system: Trichophyton mentagrophytes B. 32663; settings: Trichophyton mentagrophytes
Method in brief: as §1

[15] = B.42419, RPMI-1640, 35° C., no growth observed, read-out: Minimal inhibitory concentration(MIC), Cry. neoformans B. 42419
[16] = Cry. neoformans B. 42419, RPMI-1640, 35° C., read-out: Minimal inhibitory concentration (MIC)
[17] = C. albicans IFO. 1385, RPMI-1640, 35° C., read-out: Minimal inhibitory concentration (MIC)
[18] = IFO.1385, RPMI-1640, 35° C., no growth observed, read-out: Minimal inhibitory concentration(MIC), C. albicans IFO. 1385
[19] = C. krusei K. 11655, RPMI-1640, 35° C., read-out: Minimal inhibitory concentration (MIC)
[20] = K.11655, RPMI-1640, 35° C., no growth observed, read-out: Minimal inhibitory concentration(MIC), C. krusei K. 11655
[21] = A.9129, RPMI-1640, 35° C., 4 to 48 hours, no growth observed, read-out: Minimal inhibitory concentration(MIC), T. mentagrophytes A. 9129
[22] = A.9129, RPMI-1640, 35° C., no growth observed, read-out: Minimal inhibitory concentration (MIC), T. mentagrophytes A. 9129
[23] = T. mentagrophytes A. 9129, RPMI-1640, 35° C., 4 to 48 hours, read-out: Minimal inhibitory concentration (MIC)
[24] = A.34144, RPMI-1640, 35° C., 4 to 48 hours, no growth observed, read-out: Minimal inhibitory concentration(MIC), Cry. neoformans A. 34144
[25] = A.34144, RPMI-1640, 35° C., no growth observed, read-out: Minimal inhibitory concentration (MIC), Cry. neoformans A. 34144
[26] = Cry. neoformans A. 34144, RPMI-1640, 35° C., 4 to 48 hours, read-out: Minimal inhibitory concentration (MIC)
[27] = C. pseudotropicalis K. 11658, RPMI-1640, 35° C., read-out: Minimal inhibitory concentration (MIC)
[28] = K.11658, RPMI-1640, 35° C., no growth observed, read-out: Minimal inhibitory concentration(MIC), C. pseudotropicalis K. 11658
[29] = A.7330, RPMI-1640, 35° C., no growth observed, read-out: Minimal inhibitory concentration(MIC), C. parapsitosis A. 7330
[30] = C. parapsitosis A. 7330, RPMI-1640, 35° C., read-out: Minimal inhibitory concentration (MIC)
[31] = A. niger A. 16404, RPMI-1640, 35° C., 4 to 48 hours, read-out: Minimal inhibitory concentration (MIC)
[32] = A.16404, RPMI-1640, 35° C., 4 to 48 hours, no growth observed, read-out: Minimal inhibitory concentration(MIC), A. niger A. 16404
[33] = A.16404, RPMI-1640, 35° C., no growth observed, read-out: Minimal inhibitory concentration (MIC), A. niger A. 16404
[34] = A.10231, RPMI-1640, 35° C., no growth observed, read-out: Minimal inhibitory concentration(MIC), C. albicans A. 10231
[35] = C. albicans A. 10231, RPMI-1640, 35° C., read-out: Minimal inhibitory concentration (MIC)
[36] = C12, C. albicans C1-2, RPMI-1640, 35° C., read-out: Minimal inhibitory concentration (MIC)
[37] = C12, RPMI-1640, 35° C., no growth observed, read-out: Minimal inhibitory concentration(MIC), C. albicans C1-2
[38] = B.16205, RPMI-1640, 35° C., no growth observed, read-out: Minimal inhibitory concentration(MIC), T. glabrata B. 16205
[39] = T. glabrata B. 16205, RPMI-1640, 35° C., read-out: Minimal inhibitory concentration (MIC)
[40] = A furnigatus B. 19119, RPMI-1640, 35° C., 4 to 48 hours, read-out: Minimal inhibitory concentration (MIC)
[41] = B.19119, RPMI-1640, 35° C., 4 to 48 hours, no growth observed, read-out: Minimal inhibitory concentration(MIC), A furnigatus B. 19119
[42] = B.19119, RPMI-1640, 35° C., no growth observed, read-out: Minimal inhibitory concentration (MIC), A furnigatus B. 19119
[43] = Cry. neoformans IFM. 40092, RPMI-1640, 35° C., 4 to 48 hours, read-out: Minimal inhibitory concentration (MIC)
[44] = IFM.40092, RPMI-1640, 35° C., 4 to 48 hours, no growth observed, read-out: Minimal inhibitory concentration(MIC), Cry. neoformans IFM. 40092
[45] = IFM.40092, RPMI-1640, 35° C., no growth observed, read-out: Minimal inhibitory concentration (MIC), Cry. neoformans IFM. 40092
[46] = B.32663, RPMI-1640, 35° C., 4 to 48 hours, no growth observed, read-out: Minimal inhibitory concentration(MIC), T. mentagrophytes B. 32663
[47] = B.32663, RPMI-1640, 35° C., no growth observed, read-out: Minimal inhibitory concentration (MIC), T. mentagrophytes B. 32663
[48] = T. mentagrophytes B. 32663, RPMI-1640, 35° C., 4 to 48 hours, read-out: Minimal inhibitory concentration (MIC)

OC(Cn1cncn1)(Cn1cncn1)c1ccc(F)cc1F [fluconazole, reference compound]
MIC [1, 15]: 25 µg/mL (≈ 81.6 µM) | MIC [1, 16]: 25 µg/mL (≈ 81.6 µM) | MIC [2, 17]: 12.5 µg/mL (≈ 40.8 µM) | MIC [2, 18]: 12.5 µg/mL (≈ 40.8 µM) | MIC [3, 19]: 25 µg/mL (≈ 81.6 µM) | MIC [3, 20]: 25 µg/mL (≈ 81.6 µM) | MIC [4, 21]: 50 µg/mL (≈ 163 µM) | MIC [4, 22]: 50 µg/mL (≈ 163 µM) | MIC [4, 23]: 50 µg/mL (≈ 163 µM) | MIC [5, 24]: 12.5 µg/mL (≈ 40.8 µM) | MIC [5, 25]: 12.5 µg/mL (≈ 40.8 µM) | MIC [5, 26]: 12.5 µg/mL (≈ 40.8 µM) | MIC [6, 27]: 12.5 µg/mL (≈ 40.8 µM) | MIC [6, 28]: 12.5 µg/mL (≈ 40.8 µM) | MIC [7, 29]: 12.5 µg/mL (≈ 40.8 µM) | MIC [7, 30]: 12.5 µg/mL (≈ 40.8 µM) | MIC [8, 31]: > 100 µg/mL | MIC [8, 32]: > 100 µg/mL | MIC [8, 33]: > 100 µg/mL | MIC [9, 34]: > 100 µg/mL | MIC [9, 35]: > 100 µg/mL | MIC [10, 36]: > 100 µg/mL | MIC [10, 37]: > 100 µg/mL | MIC [11, 38]: 100 µg/mL (≈ 327 µM) | MIC [11, 39]: 100 µg/mL (≈ 327 µM) | MIC [12, 40]: > 100 µg/mL | MIC [12, 41]: > 100 µg/mL | MIC [12, 42]: > 100 µg/mL | MIC [13, 43]: 3.13 µg/mL (≈ 10.2 µM) | MIC [13, 44]: 3.13 µg/mL (≈ 10.2 µM) | MIC [13, 45]: 3.13 µg/mL (≈ 10.2 µM) | MIC [14, 46]: 12.5 µg/mL (≈ 40.8 µM) | MIC [14, 47]: 12.5 µg/mL (≈ 40.8 µM) | MIC [14, 48]: 12.5 µg/mL (≈ 40.8 µM)

CCC(C)n1ncn(-c2ccc(N3CCN(c4ccc(OCC5COC(Cn6cncn6)(c6ccc(Cl)cc6Cl)O5)cc4)CC3)cc2)c1=O (centres unmarked) [itraconazole, reference compound]
MIC [1, 15]: 0.39 µg/mL (≈ 0.553 µM) | MIC [1, 16]: 0.39 µg/mL (≈ 0.553 µM) | MIC [2, 17]: 1.56 µg/mL (≈ 2.21 µM) | MIC [2, 18]: 1.56 µg/mL (≈ 2.21 µM) | MIC [3, 19]: 0.39 µg/mL (≈ 0.553 µM) | MIC [3, 20]: 0.39 µg/mL (≈ 0.553 µM) | MIC [4, 21]: ≤ 0.1 µg/mL | MIC [4, 22]: ≤ 0.1 µg/mL | MIC [4, 23]: ≤ 0.1 µg/mL | MIC [5, 24]: 0.39 µg/mL (≈ 0.553 µM) | MIC [5, 25]: 0.39 µg/mL (≈ 0.553 µM) | MIC [5, 26]: 0.39 µg/mL (≈ 0.553 µM) | MIC [6, 27]: 0.39 µg/mL (≈ 0.553 µM) | MIC [6, 28]: 0.39 µg/mL (≈ 0.553 µM) | MIC [7, 29]: 0.78 µg/mL (≈ 1.11 µM) | MIC [7, 30]: 0.78 µg/mL (≈ 1.11 µM) | MIC [8, 31]: 1.56 µg/mL (≈ 2.21 µM) | MIC [8, 32]: 1.56 µg/mL (≈ 2.21 µM) | MIC [8, 33]: 1.56 µg/mL (≈ 2.21 µM) | MIC [9, 34]: > 100 µg/mL | MIC [9, 35]: > 100 µg/mL | MIC [10, 36]: > 100 µg/mL | MIC [10, 37]: > 100 µg/mL | MIC [11, 38]: 50 µg/mL (≈ 70.9 µM) | MIC [11, 39]: 50 µg/mL (≈ 70.9 µM) | MIC [12, 40]: ≤ 0.1 µg/mL | MIC [12, 41]: ≤ 0.1 µg/mL | MIC [12, 42]: ≤ 0.1 µg/mL | MIC [13, 43]: ≤ 0.1 µg/mL | MIC [13, 44]: ≤ 0.1 µg/mL | MIC [13, 45]: ≤ 0.1 µg/mL | MIC [14, 46]: ≤ 0.1 µg/mL | MIC [14, 47]: ≤ 0.1 µg/mL | MIC [14, 48]: ≤ 0.1 µg/mL
